Assay results reported in ChEMBL document CHEMBL3734659, “Identification of tris-(phenylalkyl)amines as new selective h5-HT2Breceptor antagonists” (Medchemcomm, 2015).
The source made the active and inactive calls. The calls are words filed in the database; no cut-off is given here.

Assays:
[1] = biological target: Alpha-1B adrenergic receptor (Homo sapiens) (UniProt P35368); test: Displacement of [3H]Prazosin from human recombinant alpha 1B receptor expressed in HEKT cell membrane after 90 mins by scintillation counting method; format: cell membranes
Chain of Alpha-1B adrenergic receptor (Homo sapiens) (P35368 whole entry): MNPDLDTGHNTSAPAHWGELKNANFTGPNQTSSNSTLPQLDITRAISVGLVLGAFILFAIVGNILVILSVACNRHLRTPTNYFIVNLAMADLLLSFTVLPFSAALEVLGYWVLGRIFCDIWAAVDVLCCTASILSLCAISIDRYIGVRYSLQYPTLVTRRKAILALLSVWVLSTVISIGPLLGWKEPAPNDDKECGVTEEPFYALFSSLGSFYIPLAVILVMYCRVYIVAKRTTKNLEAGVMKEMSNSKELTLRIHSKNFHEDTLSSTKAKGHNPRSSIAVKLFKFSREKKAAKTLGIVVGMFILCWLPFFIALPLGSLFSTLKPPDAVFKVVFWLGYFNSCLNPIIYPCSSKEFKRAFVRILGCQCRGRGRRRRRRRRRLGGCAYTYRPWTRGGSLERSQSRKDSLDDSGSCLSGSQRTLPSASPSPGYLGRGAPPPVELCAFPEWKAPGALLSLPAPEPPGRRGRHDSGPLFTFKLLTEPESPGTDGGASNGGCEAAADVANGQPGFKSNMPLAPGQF

[2] = biological target: Translocator protein (Rattus norvegicus) (UniProt P16257); test: Displacement of [3H]PK11195 from rat brain PBR after 90 mins by scintillation counting method
Chain of Translocator protein (Rattus norvegicus) (P16257 whole entry, looked up): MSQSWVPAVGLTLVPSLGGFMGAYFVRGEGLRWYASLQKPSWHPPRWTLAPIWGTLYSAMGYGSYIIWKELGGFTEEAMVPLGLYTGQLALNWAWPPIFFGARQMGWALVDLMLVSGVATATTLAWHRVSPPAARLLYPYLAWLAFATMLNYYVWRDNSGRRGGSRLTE

Activity [1]: inactive | Activity [2]: inactive
SMILES: COc1ccc(CCN(CCCc2ccccc2)CCc2ccc3c(c2)OCO3)cc1OC
